This note sets out measurements from patent publication US12187746B2, “C26-linked rapamycin analogs as mTOR inhibitors” (Revolution Medicines, Inc., priority 2018, dated 2025).

The subject of one experiment is P-Akt (S473). In words: Cell based AlphaLISA assay, inhibition of P-Akt (S473) in MDA-MB-468 cells. The conditions noted are these: Homo sapiens, 4 h, 0.017-1,000 nM, two to four hours at 37° C., AlphaLisa SureFire Ultra, read-out: pIC50 for Inhibition of mTORC1 and mTORC2 Substrate Phosphorylation, p-AKT1/2/3-(S473) (converted). The procedure: (§1) Cell Based AlphaLISA Assays For Determining IC50 For Inhibition of P-Akt (S473), P-4E-BP1 (T37/46), and P-P70S6K (T389) in MDA-MB-468 Cells
(§2) mTOR Kinase Cellular Assay
(§3) To measure functional activity of mTORC1 and mTORC2 in cells the phosphorylation of 4EBP1 (Thr37/46) and P70S6K (Thr389), and AKT1/2/3 (Ser473) was monitored using AlphaLisa SureFire Ultra Kits (Perkin Elmer). […] Incubations are terminated by removal of the assay buffer and addition of lysis buffer provided with the assay kit. Samples are processed according to the manufacturer's instructions. The Alpha signal from the respective phosphoproteins is measured in duplicate using a microplate reader (Envision, Perkin-Elmer or Spectramax M5, Molecular Devices). Inhibitor concentration response curves are analyzed using normalized IC50 regression curve fitting with control based normalization.

Another experiment relates to P-P70S6K (T389). In words: Cell based AlphaLISA assay, inhibition of P-P70S6K (T389) in MDA-MB-468 cells. The conditions noted are these: Homo sapiens, 4 h, 0.017-1,000 nM, two to four hours at 37° C., AlphaLisa SureFire Ultra, read-out: pIC50 for Inhibition of mTORC1 and mTORC2 Substrate Phosphorylation, p-P70S6K-(T389) (converted). The procedure: as §1, §2, §3
The test system of another experiment is P-4E-BP1 (T37/46). As to the kind of experiment: Cell based AlphaLISA assay, inhibition of P-4E-BP1 (T37/46) in MDA-MB-468 cells. The conditions noted are these: Homo sapiens, 4 h, 0.017-1,000 nM, two to four hours at 37° C., AlphaLisa SureFire Ultra, read-out: pIC50 for Inhibition of mTORC1 and mTORC2 Substrate Phosphorylation, p-4E-BP1-(T37/46) (converted). The protocol: as §1, §2, §3

In the case of `CO[C@H]1C[C@@H]2CC[C@@H](C)[C@@](O)(O2)C(=O)C(=O)N2CCCC[C@H]2C(=O)O[C@H]([C@H](C)C[C@@H]2CC[C@@H](O)[C@H](OC)C2)C[C@@H](O)[C@H](C)/C=C(\C)[C@@H](O)[C@@H](OC)C(=NOCC(=O)N2CCc3nc(N4CCN(c5ncc(C(=O)NCCOCCC(=O)N6CCc7cc(Cn8nc(-c9ccc%10oc(N)nc%10c9)c9c(N)ncnc98)ccc7C6)cn5)CC4)ncc3C2)[C@H](C)CC(C)/C=C/C=C/C=C/1C` (stereo partly drawn) [Example 18], the IC50 is greater than 1000 nM in the experiment on P-Akt (S473), 1 to 10 nM with P-P70S6K (T389) and 3.16 to 31.6 nM in the experiment on P-4E-BP1 (T37/46).

For the compound `CO[C@H]1C[C@@H]2CC[C@@H](C)[C@@](O)(O2)C(=O)C(=O)N2CCCC[C@H]2C(=O)O[C@H]([C@H](C)C[C@@H]2CC[C@@H](O)[C@H](OC)C2)C[C@@H](O)[C@H](C)/C=C(\C)[C@@H](O)[C@@H](OC)C(=NOCC(=O)N2CCc3nc(N4CCN(c5ncc(C(=O)NCCOCCOCCOCCC(=O)N6CCc7cc(Cn8nc(-c9cnc%10[nH]ccc%10c9)c9c(N)ncnc98)ccc7C6)cn5)CC4)ncc3C2)[C@H](C)C[C@H](C)/C=C/C=C/C=C/1C` [Example 19], the IC50 was greater than 1000 nM in the experiment with P-Akt (S473), 1 to 10 nM in the experiment on P-P70S6K (T389) and 3.16 to 31.6 nM in the experiment with P-4E-BP1 (T37/46).

Consider `CO[C@H]1C[C@@H]2CC[C@@H](C)[C@@](O)(O2)C(=O)C(=O)N2CCCC[C@H]2C(=O)O[C@H]([C@H](C)C[C@@H]2CC[C@@H](O)[C@H](OC)C2)C[C@@H](O)[C@H](C)/C=C(\C)[C@@H](O)[C@@H](OC)C(=NOCC(=O)NCc2cnc(N3CCN(c4ncc(C(=O)NCCOCCOCCOCCC(=O)NCCCCn5nc(-c6ccc7oc(N)nc7c6)c6c(N)ncnc65)cn4)CC3)nc2)[C@H](C)C[C@H](C)/C=C/C=C/C=C/1C` [Example 20], for which the IC50 with P-Akt (S473) is greater than 1000 nM; with P-P70S6K (T389), 1 to 10 nM; with P-4E-BP1 (T37/46), 3.16 to 31.6 nM.

`CO[C@H]1C[C@@H]2CC[C@@H](C)[C@@](O)(O2)C(=O)C(=O)N2CCCC[C@H]2C(=O)O[C@H]([C@H](C)C[C@@H]2CC[C@@H](O)[C@H](OC)C2)C[C@@H](O)[C@H](C)/C=C(\C)[C@@H](O)[C@@H](OC)C(=NOCC(=O)NCc2cnc(N3CCN(c4ncc(C(=O)NCCOCCOCCOCCC(=O)N5CCc6cc(Cn7nc(-c8cnc9[nH]ccc9c8)c8c(N)ncnc87)ccc6C5)cn4)CC3)nc2)[C@H](C)C[C@H](C)/C=C/C=C/C=C/1C` [Example 21]: the IC50 in the experiment with P-Akt (S473) is greater than 1000 nM; with P-P70S6K (T389) it was 1 to 10 nM; in the experiment on P-4E-BP1 (T37/46) it was 3.16 to 31.6 nM.

Consider `CO[C@H]1C[C@@H]2CC[C@@H](C)[C@@](O)(O2)C(=O)C(=O)N2CCCC[C@H]2C(=O)O[C@H]([C@H](C)C[C@@H]2CC[C@@H](O)[C@H](OC)C2)C[C@@H](O)[C@H](C)/C=C(\C)[C@@H](O)[C@@H](OC)C(=NOCC(=O)NCc2cnc(N3CCN(C(=O)CN(C)CC(=O)NCCOCCOCCC(=O)NCCCCn4nc(-c5cnc6[nH]ccc6c5)c5c(N)ncnc54)CC3)nc2)[C@H](C)C[C@H](C)/C=C/C=C/C=C/1C` [Example 22], for which the values for the IC50 in the experiment on P-Akt (S473), in the experiment with P-P70S6K (T389) and with P-4E-BP1 (T37/46) were greater than 1000 nM, 1 to 10 nM and 31.6 to 1000 nM, respectively.

Turning to `CO[C@H]1C[C@@H]2CC[C@@H](C)[C@@](O)(O2)C(=O)C(=O)N2CCCC[C@H]2C(=O)O[C@H]([C@H](C)C[C@@H]2CC[C@@H](O)[C@H](OC)C2)C[C@@H](O)[C@H](C)/C=C(\C)[C@@H](O)[C@@H](OC)C(=NOCC(=O)N2CCc3nc(N4CCN(C(=O)CCOCCOCCOCCOCCC(=O)NCCCCn5nc(-c6ccc7oc(N)nc7c6)c6c(N)ncnc65)CC4)ncc3C2)[C@H](C)C[C@H](C)/C=C/C=C/C=C/1C` [Example 23], the IC50 in the experiment on P-Akt (S473) is 31.6 to 1000 nM; in the experiment on P-P70S6K (T389), 1 to 10 nM; with P-4E-BP1 (T37/46) it was 3.16 to 31.6 nM.

Take `CO[C@H]1C[C@@H]2CC[C@@H](C)[C@@](O)(O2)C(=O)C(=O)N2CCCC[C@H]2C(=O)O[C@H]([C@H](C)C[C@@H]2CC[C@@H](O)[C@H](OC)C2)C[C@@H](O)[C@H](C)/C=C(\C)[C@@H](O)[C@@H](OC)C(=NOCC(=O)NCc2cnc(N3CCN(C(=O)CN(C)CC(=O)NCCOCCOCCC(=O)NCCCCn4nc(-c5ccc6oc(N)nc6c5)c5c(N)ncnc54)CC3)nc2)[C@H](C)C[C@H](C)/C=C/C=C/C=C/1C` [Example 24]: the figures for the IC50 in the experiment on P-Akt (S473), in the experiment with P-P70S6K (T389) and with P-4E-BP1 (T37/46) were 31.6 to 1000 nM, 1 to 10 nM and 31.6 to 1000 nM, respectively.

On to `CO[C@H]1C[C@@H]2CC[C@@H](C)[C@@](O)(O2)C(=O)C(=O)N2CCCC[C@H]2C(=O)O[C@H]([C@H](C)C[C@@H]2CC[C@@H](O)[C@H](OC)C2)C[C@@H](O)[C@H](C)/C=C(\C)[C@@H](O)[C@@H](OC)C(=NOCC(=O)NCc2cnc(N3CCN(C(=O)CN(C)CC(=O)NCCOCCOCCC(=O)N4CCc5cc(Cn6nc(-c7ccc8oc(N)nc8c7)c7c(N)ncnc76)ccc5C4)CC3)nc2)[C@H](C)C[C@H](C)/C=C/C=C/C=C/1C` [Example 25], for which the figures for the IC50 in the experiment on P-Akt (S473), in the experiment with P-P70S6K (T389) and with P-4E-BP1 (T37/46) were greater than 1000 nM, 1 to 10 nM and 31.6 to 1000 nM, respectively.

As to `CO[C@H]1C[C@@H]2CC[C@@H](C)[C@@](O)(O2)C(=O)C(=O)N2CCCC[C@H]2C(=O)O[C@H]([C@H](C)C[C@@H]2CC[C@@H](O)[C@H](OC)C2)C[C@@H](O)[C@H](C)/C=C(\C)[C@@H](O)[C@@H](OC)C(=NOCC(=O)NCCOCCC(=O)N2CCc3nc(N4CCN(c5ncc(C(=O)N6CCc7cc(Cn8nc(-c9ccc%10oc(N)nc%10c9)c9c(N)ncnc98)ccc7C6)cn5)CC4)ncc3C2)[C@H](C)C[C@H](C)/C=C/C=C/C=C/1C` [Example 26], the values for the IC50 in the experiment with P-Akt (S473), in the experiment on P-P70S6K (T389) and in the experiment with P-4E-BP1 (T37/46) were greater than 1000 nM, 1 to 10 nM and 3.16 to 31.6 nM, respectively.

As for `CO[C@H]1C[C@@H]2CC[C@@H](C)[C@@](O)(O2)C(=O)C(=O)N2CCCC[C@H]2C(=O)O[C@H]([C@H](C)C[C@@H]2CC[C@@H](O)[C@H](OC)C2)C[C@@H](O)[C@H](C)/C=C(\C)[C@@H](O)[C@@H](OC)C(=NOCC(=O)NCCOCCOCCOCCOCCC(=O)N2CCN(c3ncc(C(=O)NCCCCn4nc(-c5ccc6oc(N)nc6c5)c5c(N)ncnc54)cn3)CC2)[C@H](C)C[C@H](C)/C=C/C=C/C=C/1C` [Example 27], the IC50 was 31.6 to 1000 nM with P-Akt (S473), 1 to 10 nM in the experiment on P-P70S6K (T389) and 3.16 to 31.6 nM with P-4E-BP1 (T37/46).

On to `CO[C@H]1C[C@@H]2CC[C@@H](C)[C@@](O)(O2)C(=O)C(=O)N2CCCC[C@H]2C(=O)O[C@H]([C@H](C)C[C@@H]2CC[C@@H](O)[C@H](OC)C2)C[C@@H](O)[C@H](C)/C=C(\C)[C@@H](O)[C@@H](OC)C(=NOCC(=O)NCCOCCOCCOCCOCCOCCOCCC(=O)N2CCC(N3CCC(C(=O)N4CCc5cc(Cn6nc(-c7ccc8oc(N)nc8c7)c7c(N)ncnc76)ccc5C4)CC3)CC2)[C@H](C)C[C@H](C)/C=C/C=C/C=C/1C` [Example 28], for which the IC50 in the experiment on P-Akt (S473) is 31.6 to 1000 nM; with P-P70S6K (T389), 1 to 10 nM; with P-4E-BP1 (T37/46) it was 3.16 to 31.6 nM.

Consider `CO[C@H]1C[C@@H]2CC[C@@H](C)[C@@](O)(O2)C(=O)C(=O)N2CCCC[C@H]2C(=O)O[C@H]([C@H](C)C[C@@H]2CC[C@@H](O)[C@H](OC)C2)C[C@@H](O)[C@H](C)/C=C(\C)[C@@H](O)[C@@H](OC)C(=NOCC(=O)NCc2cnc(N3CCN(C(=O)CCOCCN4CCN(c5ncc(C(=O)NCCCCn6nc(-c7ccc8oc(N)nc8c7)c7c(N)ncnc76)cn5)CC4)CC3)nc2)[C@H](C)C[C@H](C)/C=C/C=C/C=C/1C` [Example 29], for which the IC50 was 31.6 to 1000 nM with P-Akt (S473), 1 to 10 nM in the experiment with P-P70S6K (T389) and 3.16 to 31.6 nM in the experiment on P-4E-BP1 (T37/46).
